Measured values from patent US8785453B2, “Arylpiperazine-containing purine derivatives and uses thereof” (Green Cross Corporation, priority 2009, dated 2014).
pIC50: −log10 of the molar value.

Legend:
mice [1] = experiment: Synergy effect of the inventive compound combined with conventional anti-depressants in forced swimming test; assay type: in vivo; details: for anti-immobility effect in FST, anti-depressant alone: 25 mg/kg p.o.
Procedure: Each drug or vehicle was suspended in 3% Tween 80 solution and administered orally (p.o.) 60 min before forced swimming test.

[2] = molecular target: T1, human recombinant 5-HT2C receptor (Homo sapiens, UniProt P28335); experiment: Binding affinity for serotonin 5-HT2C receptor ([3H]Mesulergine); details: CHO-K1 membranes, 1.3 nM [3H]Mesulergine; read-out: binding affinity (IC50) 5-HT2C
T1 construct: purchased PerkinElmer
T1 sequence (P28335 33-458): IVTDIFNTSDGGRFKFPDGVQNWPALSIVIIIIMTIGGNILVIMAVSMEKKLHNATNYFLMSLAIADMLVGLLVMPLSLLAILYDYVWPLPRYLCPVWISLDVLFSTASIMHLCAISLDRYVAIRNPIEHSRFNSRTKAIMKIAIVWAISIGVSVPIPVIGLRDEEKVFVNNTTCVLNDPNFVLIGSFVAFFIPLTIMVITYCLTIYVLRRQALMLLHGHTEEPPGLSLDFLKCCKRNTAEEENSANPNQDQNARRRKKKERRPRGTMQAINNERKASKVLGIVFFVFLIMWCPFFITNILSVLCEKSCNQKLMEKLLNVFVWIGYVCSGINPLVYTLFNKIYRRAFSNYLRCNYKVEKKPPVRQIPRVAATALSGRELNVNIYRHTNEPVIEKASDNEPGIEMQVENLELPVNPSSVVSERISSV
Procedure: (§1) Receptor binding affinities of the compounds for serotonin receptors were measured by the method described in the literature (see [Park W K et al., Pharmacol Biochem Behav., 82(2), 361-372 (2005)].
(§2) The binding affinity (IC50) of a compound for the receptor was calculated by computerized nonlinear regression analysis (GraphPad Prism Program, San Diego, USA) using 7-8 varied concentrations of the compound run in duplicate tubes.
For serotonin 5-HT2C binding, frozen membranes from stable CHO-K1 cell line expressing the human recombinant 5-HT2C receptor (PerkinElmer, 4 μg/well), [^3H]Mesulergine (Amersham, 1.3 nM) and test compounds were added into 50 mM Tris-HCl (pH 7.4) buffer containing 0.1% ascorbic acid and 4 mM CaCl2. Nonspecific binding was determined using 100 μM mianserin. The incubations were performed for 60 min at 27, and these were terminated by rapid filtration through filtermate A glass fiber filter presoaked in 0.5% PEI.

[3] = molecular target: T2, human recombinant serotonin 5-HT2A receptor (Homo sapiens, UniProt P28223); experiment: Binding affinity for serotonin 5-HT2A receptor ([3H]Ketanserin); details: CHO-K1 cells, 1 nM [3H]Ketanserin; read-out: binding affinity (IC50) 5-HT2A
T2 construct: purchased PerkinElmer Life and Analytical Sciences, USA; host or cells: CHO-K1 cells
Procedure: as §1
For serotonin 5-HT2A binding, an aliquot of human recombinant serotonin 5-HT2A receptor (PerkinElmer Life and Analytical Sciences, USA) expressed in CHO-K1 cells (5 μg/well) and 1 nM [^3H]Ketanserin (PerkinElmer) were used in the presence of mianserin (20 μM) as a nonspecific. The reaction mixture was incubated for 60 min […] 50 mM Tris-HCl (pH 7.4) buffer containing 4 mM CaCl2 and 0.1% ascorbic acid, and harvested through filtermate A glass fiber filter (Wallac, Finland) presoaked in 0.5% polyethyleneimine (PEI) by microbeta filtermate-96 harvester (PerkinElmer) to terminate the reaction, and then washed with ice cold 50 mM Tris-HCl buffer solution (pH 7.4). The filter was then covered with MeltiLex, sealed in a sample bag, dried in an oven. The radioactivity retained in the filter was finally counted using MicroBeta Plus (Wallac).
as §2

mice [4] = experiment: Anti-depressants activity in forced swimming test; assay type: in vivo; details: 60 min before testing
Procedure: Each mouse was placed in a 25 cm glass cylinder (10 cm diameter) containing 15 cm of water maintained at 22±1, and was forced to swim for 10 min. 24 hours later, the mouse was replaced into the cylinder and the total duration of immobility was recorded during the last 5 min of the 6-min testing period. Mice are judged immobile when they float in an upright position and make only small movements to keep their head above water. Test drugs were suspended in 3% Tween 80 solution, and administered orally (po) 60 min before the testing.

[5] = molecular target: T3, human serotonin transporter (Homo sapiens, UniProt P31645); experiment: Binding affinity for serotonin transporter ([3H]Imipramine); details: HEK-293 membrane, 2 nM [3H]Imipramine; read-out: binding affinity Serotonin Transporter
T3 construct: purchased PerkinElmer; host or cells: HEK-293 cells
Procedure: For serotonin transporter binding assays, a reaction mixture with a final volume of 0.25 ml was prepared by mixing a test compound, human serotonin transporter membrane expressed in HEK-293 cells (PerkinElmer, 5 μg/well), [^3H] Imipramine (PerkinElmer, 2 nM) and 50 mM Tris-HCl (pH 7.4) buffer containing 120 mM NaCl and 5 mM KCl. The reaction mixture was incubated for 30 min at 27, and harvested through filtermate A glass fiber filter presoaked in 0.5% PEI with ice cold 50 mM Tris-HCl buffer (pH 7.4) containing 0.9% NaCl.

T2 sequence (P28223 whole entry): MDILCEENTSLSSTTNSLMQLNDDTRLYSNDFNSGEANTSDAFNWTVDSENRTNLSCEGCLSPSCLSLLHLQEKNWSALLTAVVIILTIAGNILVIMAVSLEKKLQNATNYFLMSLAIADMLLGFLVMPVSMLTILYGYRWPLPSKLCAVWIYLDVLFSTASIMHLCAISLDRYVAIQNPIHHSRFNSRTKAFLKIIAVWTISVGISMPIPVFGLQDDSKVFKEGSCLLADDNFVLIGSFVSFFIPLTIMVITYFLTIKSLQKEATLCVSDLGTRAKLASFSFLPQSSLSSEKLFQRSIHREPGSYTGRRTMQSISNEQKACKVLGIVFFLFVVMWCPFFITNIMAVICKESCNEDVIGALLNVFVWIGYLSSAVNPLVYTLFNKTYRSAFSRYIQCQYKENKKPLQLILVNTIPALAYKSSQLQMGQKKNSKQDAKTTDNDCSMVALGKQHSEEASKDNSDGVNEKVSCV
T3 sequence (P31645 whole entry): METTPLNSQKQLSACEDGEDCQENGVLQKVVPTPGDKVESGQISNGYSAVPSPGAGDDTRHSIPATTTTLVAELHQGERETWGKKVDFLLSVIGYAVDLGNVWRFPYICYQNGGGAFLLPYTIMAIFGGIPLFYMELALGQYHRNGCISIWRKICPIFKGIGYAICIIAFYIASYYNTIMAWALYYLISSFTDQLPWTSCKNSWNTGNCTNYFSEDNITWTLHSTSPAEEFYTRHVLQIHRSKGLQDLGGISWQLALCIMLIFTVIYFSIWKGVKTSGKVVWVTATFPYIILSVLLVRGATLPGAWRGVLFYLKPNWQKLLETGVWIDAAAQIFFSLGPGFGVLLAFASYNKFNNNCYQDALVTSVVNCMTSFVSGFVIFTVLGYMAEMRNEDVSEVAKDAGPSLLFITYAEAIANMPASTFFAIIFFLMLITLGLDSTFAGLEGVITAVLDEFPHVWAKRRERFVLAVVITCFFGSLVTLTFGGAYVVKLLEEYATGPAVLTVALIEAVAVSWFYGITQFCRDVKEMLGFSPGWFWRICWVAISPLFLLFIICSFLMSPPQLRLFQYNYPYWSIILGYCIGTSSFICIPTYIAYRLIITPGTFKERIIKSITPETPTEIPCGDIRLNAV

COc1ccc(C(CN(C)C)C2(O)CCCCC2)cc1 (centres unmarked) [Effexor]
anti-immobility effect in FST, anti-depressant alone (mice [1]): did not improve the anti-immobility effect

Cc1cccc(N2CCN(CCCNc3ncnc4c3nc(C)n4-c3ccc4c(c3)OCCO4)CC2)c1C [Example 43, 9-(2,3-dihydrobenzo[b][1,4]dioxin-6-yl)-N-(3-(4-(2,3-dimethylphenyl)piperazin-1-yl)propyl)-8-methyl-9H-purine-6-amine]
pIC50 [2]: 6.93 | pIC50 [3]: 7.85 | Immobility in forced swimming test (mice [4]; 25 mg/kg po): 81.26 ± 11.85% | pIC50 [5]: 7.80

Cc1cccc(N2CCN(CC(O)CNc3ncnc4c3nc(C)n4-c3ccc4c(c3)OCCO4)CC2)c1C (centres unmarked) [Example 44, 1-(9-(2,3-dihydrobenzo[b][1,4]dioxin-6-yl)-8-methyl-9H-purin-6-ylamino)-3-(4-(2,3-dimethylphenyl)piperazin-1-yl)propan-2-ol]
pIC50 [2]: 6.29 | pIC50 [3]: 7.27 | Immobility in forced swimming test (mice [4]; 25 mg/kg po): 80.41 ± 7.04% | pIC50 [5]: 7.19

CCc1nc2c(NCCCN3CCN(c4cccc(C)c4C)CC3)ncnc2n1-c1ccc2c(c1)OCCO2 [Example 45, 9-(2,3-dihydrobenzo[b][1,4]dioxin-6-yl)-N-(3-(4-(2,3-dimethylphenyl)piperazin-1-yl)propyl)-8-ethyl-9H-purine-6-amine]
pIC50 [2]: 6.82 | pIC50 [3]: 7.85 | Immobility in forced swimming test (mice [4]; 25 mg/kg po): 97.64 ± 7.25% | pIC50 [5]: 7.31

Cc1cccc(N2CCN(CCCNc3ncnc4c3nc(C)n4-c3ccc(F)cc3)CC2)c1C [Example 49, N-(3-(4-(2,3-dimethylphenyl)piperazin-1-yl)propyl)-9-(4-fluorophenyl)-8-methyl-9H-purine-6-amine]
pIC50 [2]: 6.44 | pIC50 [3]: 7.33 | Immobility in forced swimming test (mice [4]; 25 mg/kg po): 81.07 ± 7.11% | pIC50 [5]: 7.21

CCc1nc2c(NCCCN3CCN(c4cccc(C)c4C)CC3)ncnc2n1-c1ccc(F)cc1 [Example 51, N-(3-(4-(2,3-dimethylphenyl)piperazin-1-yl)propyl)-8-ethyl-9-(4-fluorophenyl)-9H-purine-6-amine]
pIC50 [2]: 6.37 | pIC50 [3]: 7.18 | Immobility in forced swimming test (mice [4]; 25 mg/kg po): 99.44 ± 10.28% | pIC50 [5]: 7.72

Cc1cccc(N2CCN(CCNc3ncnc4c3nc(C)n4-c3ccc(F)cc3)CC2)c1C [Example 55, N-(2-(4-(2,3-dimethylphenyl)piperazin-1-yl)ethyl)-9-(4-fluorophenyl)-8-methyl-9H-purine-6-amine]
pIC50 [2]: 6.89 | pIC50 [3]: 7.51 | Immobility in forced swimming test (mice [4]; 25 mg/kg po): 70.53 ± 11.73% | Immobility in forced swimming test (mice [4]; 50 mg/kg po): 78.41 ± 8.11% | pIC50 [5]: 6.29

CCc1nc2c(NCCN3CCN(c4cccc(C)c4C)CC3)ncnc2n1-c1ccc(F)cc1 [Example 56, N-(2-(4-(2,3-dimethylphenyl)piperazin-1-yl)ethyl)-8-ethyl-9-(4-fluorophenyl)-9H-purine-6-amine]
pIC50 [2]: 7.12 | pIC50 [3]: 8.12 | Immobility in forced swimming test (mice [4]; 25 mg/kg po): 71.41 ± 10.84% | Immobility in forced swimming test (mice [4]; 50 mg/kg po): 77.46 ± 12.27% | pIC50 [5]: 6.84

Cc1cccc(N2CCN(CCCCNc3ncnc4c3nc(-c3ccccc3)n4-c3ccccc3)CC2)c1C [Example 68, N-(4-(4-(2,3-dimethylphenyl)piperazin-1-yl)butyl)-8,9-diphenyl-9H-purine-6-amine]
pIC50 [2]: 8.33 | pIC50 [3]: 8.62 | Immobility in forced swimming test (mice [4]; 25 mg/kg po): 78.66 ± 11.33% | Immobility in forced swimming test (mice [4]; 50 mg/kg po): 72.11 ± 7.63% | efficacy in forced swimming test, compound alone (mice [1]; 12.5 mg/kg or 25 mg/kg p.o.): do not demonstrate efficacy on animal model | pIC50 [5]: 6.84

Cc1cccc(N2CCN(CCCNc3ncnc4c3nc(C)n4-c3ccc(Cl)cc3)CC2)c1C [Example 70, 9-(4-chlorophenyl)-N-(3-(4-(2,3-dimethylphenyl)piperazin-1-yl)propyl)-8-methyl-9H-purine-6-amine]
pIC50 [2]: 6.50 | pIC50 [3]: 7.27 | Immobility in forced swimming test (mice [4]; 25 mg/kg po): 80.67 ± 12.19% | Immobility in forced swimming test (mice [4]; 50 mg/kg po): 53.34 ± 10.82% | pIC50 [5]: 7.36

Cc1cccc(N2CCN(CCCNc3ncnc4c3nc(C)n4-c3ccc(C(F)(F)F)cc3)CC2)c1C [Example 76, N-(3-(4-(2,3-dimethylphenyl)piperazin-1-yl)propyl)-8-methyl-9-(4-(trifluoromethyl)phenyl)-9H-purine-6-amine]
pIC50 [2]: 6.34 | pIC50 [3]: 7.37 | Immobility in forced swimming test (mice [4]; 25 mg/kg po): 79.98 ± 7.42% | Immobility in forced swimming test (mice [4]; 50 mg/kg po): 90.13 ± 4.29% | pIC50 [5]: 6.89

Cc1cccc(N2CCN(CCCNc3ncnc4c3nc(-c3ccccc3)n4-c3ccc4c(c3)OCO4)CC2)c1C [Example 83, 9-(benzo[d][1,3]dioxol-5-yl)-N-(3-(4-(2,3-dimethylphenyl)piperazin-1-yl)propyl)-8-phenyl-9H-purine-6-amine]
pIC50 [2]: 6.70 | pIC50 [3]: 7.52 | Immobility in forced swimming test (mice [4]; 25 mg/kg po): 70.43 ± 6.15% | pIC50 [5]: 7.38

CSc1ccc(-n2c(C)nc3c(NCCCN4CCN(c5cccc(C)c5C)CC4)ncnc32)cc1.Cl [Example 86, N-(3-(4-(2,3-dimethylphenyl)piperazin-1-yl)propyl)-8-methyl-9-(4-(methylthio)phenyl)-9H-purine-6-amine hydrochloride]
pIC50 [2]: 6.42 | pIC50 [3]: 7.60 | Immobility in forced swimming test (mice [4]; 25 mg/kg po): 66.53 ± 8.35% | pIC50 [5]: 7.19

CCc1nc2c(NCCN3CCN(c4cccc(C)c4C)CC3)ncnc2n1-c1ccc(SC)cc1.Cl [Example 87, N-(2-(4-(2,3-dimethylphenyl)piperazin-1-yl)ethyl)-8-ethyl-9-(4-(methylthio)phenyl)-9H-purine-6-amine hydrochloride]
pIC50 [2]: 7.00 | pIC50 [3]: 8.03 | Immobility in forced swimming test (mice [4]; 25 mg/kg po): 88.26 ± 6.05% | pIC50 [5]: 6.87

Cc1cccc(N2CCN(CCNc3ncnc4c3nc(-c3cccs3)n4-c3ccccc3)CC2)c1C.Cl [Example 91, N-(2-(4-(2,3-dimethylphenyl)piperazin-1-yl)ethyl)-9-phenyl-8-(thiophen-2-yl)-9H-purine-6-amine hydrochloride]
pIC50 [2]: 6.85 | pIC50 [3]: 7.55 | Immobility in forced swimming test (mice [4]; 25 mg/kg po): 89.19 ± 9.17% | pIC50 [5]: 6.50

Cc1cccc(N2CCN(CCCNc3ncnc4c3nc(-c3cccs3)n4-c3ccccc3)CC2)c1C.Cl [Example 92, N-(3-(4-(2,3-dimethylphenyl)piperazin-1-yl)propyl)-9-phenyl-8-(thiophen-2-yl)-9H-purine-6-amine hydrochloride]
pIC50 [2]: 6.52 | pIC50 [3]: 7.77 | Immobility in forced swimming test (mice [4]; 25 mg/kg po): 85.86 ± 8.90% | pIC50 [5]: 7.41

CNCCC(Oc1ccc(C(F)(F)F)cc1)c1ccccc1 (centres unmarked) [Prozac]
anti-immobility effect in FST, anti-depressant alone (mice [1]): did not improve the anti-immobility effect
